Laboratory results as given in article PMC3302783, “Position of the Third Na^+ Site in the Aspartate Transporter GltPh and the Human Glutamate Transporter, EAAT1” (PLoS ONE, 2012).

Columns and labels:
EAAT1 = target: T1, EAAT1 (Homo sapiens, UniProt P43003); experiment: Two-electrode voltage clamp of Xenopus laevis oocytes expressing wild type EAAT1; type: cell-based
T1 construct: expressed in transfected cells; host or cells: Xenopus laevis oocytes injected with cRNA
From the text: (§1) All chemicals were obtained from Sigma unless otherwise stated. Stage V oocytes were harvested from Xenopus laevis as described previously.
(§2) NMDG^+ was used as a Na^+ substitute to maintain ionic strength of the buffers.
(§3) Substrate responses were fitted by least squares as a function of substrate concentration to I/Imax = [S]/([S]+K 0.5), where I is the current, Imax is the maximal current, K 0.5 is the concentration of substrate that generates half-maximal response, and [S] is the substrate concentration. Na^+ concentration responses were fit to the Hill equation I/Imax = [S]^n/([S]^n+(K 0.5)^n) where n is the Hill coefficient and all other terms are as described above. For ^3H-L-aspartate uptake by GltPh, initial rates were calculated from the linear portion of the curve and all data represent the mean ± s.e.m. of at least 3 experiments.

EAAT1 T130A = target: T2, EAAT1 T130A (Homo sapiens, UniProt P43003, T130A); experiment: Two-electrode voltage clamp of Xenopus laevis oocytes expressing EAAT1 T130A; type: cell-based
T2 construct: expressed in transfected cells; host or cells: Xenopus laevis oocytes injected with cRNA
From the text: as §1, §2, §3

EAAT1 T131A = target: T3, EAAT1 T131A (Homo sapiens, UniProt P43003, T131A); experiment: Two-electrode voltage clamp of Xenopus laevis oocytes expressing EAAT1 T131A; type: cell-based
T3 construct: expressed in transfected cells; host or cells: Xenopus laevis oocytes injected with cRNA
From the text: as §1, §2, §3

wild type GltPh = target: T4, wild type GltPh (Pyrococcus horikoshii, UniProt O59010); experiment: ^3H-L-aspartate uptake in proteoliposomes, wild type GltPh; type: biochemical
T4 construct: histidine tag (cleaved yes); made in house
T4 sequence (O59010 1-425): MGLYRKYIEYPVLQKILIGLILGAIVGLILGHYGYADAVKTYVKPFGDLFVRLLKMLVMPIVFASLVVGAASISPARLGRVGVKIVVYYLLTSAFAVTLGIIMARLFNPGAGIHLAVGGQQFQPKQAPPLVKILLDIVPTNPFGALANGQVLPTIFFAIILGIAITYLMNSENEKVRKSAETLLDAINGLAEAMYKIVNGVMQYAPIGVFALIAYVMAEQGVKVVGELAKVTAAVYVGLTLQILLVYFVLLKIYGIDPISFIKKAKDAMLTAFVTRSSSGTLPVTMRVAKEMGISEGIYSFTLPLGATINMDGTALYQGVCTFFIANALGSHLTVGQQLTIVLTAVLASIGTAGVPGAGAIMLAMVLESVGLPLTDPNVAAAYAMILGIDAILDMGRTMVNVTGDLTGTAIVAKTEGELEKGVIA
Protocol: (§4) Pure protein was reconstituted into liposomes using a method modified from Gaillard et al., 1996 [37]. Escherichia coli polar lipids and 1-palmitoyl-2-oleoyl-sn-glycero-3-phosphocholine (Avanti Polar Lipids), at a ratio of 3∶1, were mixed, dried under nitrogen, and resuspended in internal buffer (100 mM KCl, 20 mM HEPES pH 7.5 or the appropriate internal buffer as indicated below). The lipid mixture was briefly sonicated using a cylindrical sonicator (Labatory Supplies Co.) and the lipid suspension was frozen in liquid nitrogen and thawed at 45°C several times. Liposomes were formed by extrusion through 400 nm polycarbonate membranes (Avanti Polar Lipids) and were treated with Triton X-100 at a 0.5∶1 (w/w) detergent to lipid ratio prior to the addition of protein at 0.25 µg protein/mg lipid. The protein/lipid mixture was left at room temperature for 30 minutes before detergent was removed using SM2 Biobeads (Biorad). The protein/lipid mixture was incubated, with gentle agitation, with three consecutive batches of the Biobeads (80 mg/ml). Proteoliposomes were concentrated by centrifugation at 150,000 g for 30 minutes in a Beckman Optima TLX centrifuge, resuspended at 100 mg lipid/mL and either used immediately or flash frozen in liquid nitrogen and stored at −80°C.
(§5) ^3H-L-aspartate transport by wild type GltPh and mutant GltPh transporters was assayed using a protocol modified from Gaillard et al., 1996 [37]. Proteoliposomes were loaded with internal buffer (100 mM KCl, 20 mM HEPES pH 7.5) by several freeze/thaw cycles followed by extrusion as described above. The uptake reaction was initiated by diluting the proteoliposomes (100 mg lipid/mL) 133 fold into reaction buffer pre-warmed to 30°C. The reaction buffer contained: 100 mM NaCl, 20 mM HEPES pH 7.5, 1 µM valinomycin and the indicated concentrations of ^3H-L-aspartate. […] The filters were washed once with 2 mL of ice cold quench buffer and assayed for radioactivity using a Trilux beta counter (Perkin Elmer). The Na^+ dependence of ^3H-L-aspartate transport was measured by varying extraliposomal Na^+ from 0.1 to 300 mM Na^+. […] Background levels of uptake were measured by diluting proteoliposomes into internal buffer (100 mM KCl, 20 mM HEPES pH 7.5) containing 1 µM valinomycin and the indicated concentrations of ^3H-L-aspartate.
as §3, with “Na^+ concentration responses were fit to the Hill equation I/Imax = [S]^n/([S]^n+(K 0.5)^n) where n is the Hill coefficient and all other terms are as described above.” left out

GltPh T92A [1] = target: T5, GltPh T92A (Pyrococcus horikoshii, UniProt O59010, T92A); experiment: ^3H-L-aspartate uptake in proteoliposomes, GltPh T92A; type: biochemical
T5 construct: histidine tag (cleaved yes); made in house
Protocol: as §4, §5
as §3, with “Na^+ concentration responses were fit to the Hill equation I/Imax = [S]^n/([S]^n+(K 0.5)^n) where n is the Hill coefficient and all other terms are as described above.” left out

GltPh S93A [2] = target: T6, GltPh S93A (Pyrococcus horikoshii, UniProt O59010, S93A); experiment: ^3H-L-aspartate uptake in proteoliposomes, GltPh S93A; type: biochemical
T6 construct: histidine tag (cleaved yes); made in house
Protocol: as §4, §5
as §3, with “Na^+ concentration responses were fit to the Hill equation I/Imax = [S]^n/([S]^n+(K 0.5)^n) where n is the Hill coefficient and all other terms are as described above.” left out

GltPh T92A [3] = target: T5, GltPh T92A; experiment: Binding free energy of Na^+ ions by thermodynamic integration (MD), GltPh T92A; details: GltPh T92A versus GltPh; from TI calculations
Protocol: (§6) The simulation systems are prepared using the software VMD [28]. The crystal structure of the GltPh trimer is embedded in a 1-palmitoyl-2-oleoyl-phosphatidylethanolamine (POPE) phospholipid bilayer and solvated in a box of water molecules with physiological concentration of NaCl. The final system consists of the trimer, 239 lipid molecules, 15688 water molecules and 35 Na^+ and 35 Cl^− ions. GltPh has a net charge of +6e, so to keep the system neutral 6 Cl^− ions are added in the apo system (more Cl^− ions are added when the bound Na^+ ions are included to preserve neutrality). […]
(§7) The binding free energies of Na^+ ions are calculated using the expression, ΔGb = ΔGint+ΔGtr , where the first term gives the free energy difference for the interactions of the ion in the binding site and bulk (i.e. translocation energy) and the second term measures the free energy loss due to reduction in translational entropy upon binding. […] The interaction energy is calculated using both the free energy perturbation (FEP) and the thermodynamic integration (TI) methods, [35]. […] Otherwise the binding free energy of the ion is determined from the average of the forward and backward calculations. […]

GltPh S93A [4] = target: T6, GltPh S93A; experiment: Binding free energy of Na^+ ions by thermodynamic integration (MD), GltPh S93A; details: GltPh S93A versus GltPh; from TI calculations
Protocol: as §6, §7

GltPh = system: GltPh; set-up: method as in PMID 17230192, PMID 19380583; details: initial functional studies of GltPh; ref [9], [11]; cited from earlier work
GltPh N310A = target: T7, GltPh N310A (Pyrococcus horikoshii, UniProt O59010, N310A); experiment: ^3H-L-aspartate uptake in proteoliposomes, GltPh N310A; type: biochemical; details: 100 nM ^3H-L-aspartate, 100 mM NaCl
T7 construct: histidine tag (cleaved yes); made in house
Protocol: (§8) Pure protein was reconstituted into liposomes using a method modified from Gaillard et al., 1996 [37]. Escherichia coli polar lipids and 1-palmitoyl-2-oleoyl-sn-glycero-3-phosphocholine (Avanti Polar Lipids), at a ratio of 3∶1, were mixed, dried under nitrogen, and resuspended in internal buffer (100 mM KCl, 20 mM HEPES pH 7.5 or the appropriate internal buffer as indicated below). The lipid mixture was briefly sonicated using a cylindrical sonicator (Labatory Supplies Co.) and the lipid suspension was frozen in liquid nitrogen and thawed at 45°C several times. […]
(§9) ^3H-L-aspartate transport by wild type GltPh and mutant GltPh transporters was assayed using a protocol modified from Gaillard et al., 1996 [37]. […] The filters were washed once with 2 mL of ice cold quench buffer and assayed for radioactivity using a Trilux beta counter (Perkin Elmer). The Na^+ dependence of ^3H-L-aspartate transport was measured by varying extraliposomal Na^+ from 0.1 to 300 mM Na^+. […] Background levels of uptake were measured by diluting proteoliposomes into internal buffer (100 mM KCl, 20 mM HEPES pH 7.5) containing 1 µM valinomycin and the indicated concentrations of ^3H-L-aspartate. […]

GltPh D312A = target: T8, GltPh D312A (Pyrococcus horikoshii, UniProt O59010, D312A); experiment: ^3H-L-aspartate uptake in proteoliposomes, GltPh D312A; type: biochemical; details: 100 nM ^3H-L-aspartate, 100 mM NaCl
T8 construct: histidine tag (cleaved yes); made in house
Protocol: as §8, §9

[5] = 100 µM L-glutamate, oocytes clamped at −60 mV
[6] = 100 nM ^3H-L-aspartate, Na^+ 0.1 to 300 mM
[7] = 100 mM Na^+, saturating substrate concentrations
[8] = ^3H-L-aspartate concentration-dependent transport, 100 mM NaCl

T5 sequence (O59010 whole entry T92A): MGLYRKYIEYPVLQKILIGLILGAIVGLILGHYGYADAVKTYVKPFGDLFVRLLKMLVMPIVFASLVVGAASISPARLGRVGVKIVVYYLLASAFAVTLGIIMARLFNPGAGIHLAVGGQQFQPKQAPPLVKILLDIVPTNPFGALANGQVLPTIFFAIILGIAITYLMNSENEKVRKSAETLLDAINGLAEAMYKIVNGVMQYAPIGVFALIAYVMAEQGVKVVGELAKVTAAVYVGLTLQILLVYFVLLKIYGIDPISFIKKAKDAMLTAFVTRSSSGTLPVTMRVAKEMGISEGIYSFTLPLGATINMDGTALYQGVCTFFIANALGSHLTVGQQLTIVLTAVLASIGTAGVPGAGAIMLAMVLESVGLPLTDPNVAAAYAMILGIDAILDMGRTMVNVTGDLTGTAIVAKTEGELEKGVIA
T1 sequence (P43003 whole entry): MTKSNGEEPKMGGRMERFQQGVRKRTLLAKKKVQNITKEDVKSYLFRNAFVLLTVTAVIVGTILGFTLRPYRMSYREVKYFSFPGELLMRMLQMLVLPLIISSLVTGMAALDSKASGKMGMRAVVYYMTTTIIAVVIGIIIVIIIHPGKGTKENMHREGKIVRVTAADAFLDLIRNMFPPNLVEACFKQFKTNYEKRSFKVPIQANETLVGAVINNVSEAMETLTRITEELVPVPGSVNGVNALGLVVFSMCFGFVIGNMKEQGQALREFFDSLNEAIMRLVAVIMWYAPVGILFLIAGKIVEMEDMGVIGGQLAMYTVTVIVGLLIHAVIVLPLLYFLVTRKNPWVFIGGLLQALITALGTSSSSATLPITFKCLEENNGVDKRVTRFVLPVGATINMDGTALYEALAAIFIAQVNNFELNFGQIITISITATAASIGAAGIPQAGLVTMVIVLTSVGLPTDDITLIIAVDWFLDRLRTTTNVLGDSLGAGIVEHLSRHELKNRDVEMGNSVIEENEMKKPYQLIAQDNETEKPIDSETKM
T2 sequence (P43003 whole entry T130A): as the sequence (P43003 whole entry) above, with T130A counted along it
T3 sequence (P43003 whole entry T131A): as the sequence (P43003 whole entry) above, with T131A counted along it
T6 sequence (O59010 whole entry S93A): as the sequence (O59010 whole entry T92A) above, with A92T, S93A counted along it
T7 sequence (O59010 whole entry N310A): as the sequence (O59010 whole entry T92A) above, with A92T, N310A counted along it
T8 sequence (O59010 whole entry D312A): as the sequence (O59010 whole entry T92A) above, with A92T, D312A counted along it

SMILES: N[C@@H](CCC(=O)O)C(=O)O [L-glutamate]
- current elicited by L-glutamate (EAAT1; [5]): 395±20 nA
- K 0.5 for L-glutamate transport (EAAT1; oocytes clamped at −60 mV): 15 ± 1 µM
- current elicited by L-glutamate (EAAT1 T130A; [5]): 21±2 nA
- K 0.5 for L-glutamate transport (EAAT1 T130A; oocytes clamped at −60 mV): 87 ± 3 µM
- current elicited by L-glutamate (EAAT1 T131A; [5]): 25±2 nA
- K 0.5 for L-glutamate transport (EAAT1 T131A; oocytes clamped at −60 mV): 124 ± 11 µM

SMILES: [Na+] [Na^+]
- Hill coefficient of Na^+ dependence of aspartate transport (wild type GltPh; 100 nM ^3H-L-aspartate): 2.3±0.5
- K 0.5 for Na^+ dependence of aspartate transport (wild type GltPh; [6]): 3.9 ± 0.4 mM
- Hill coefficient of Na^+ dependence of aspartate transport (GltPh T92A [1]; 100 nM ^3H-L-aspartate): 2.1±0.2
- K 0.5 for Na^+ dependence of aspartate transport (GltPh T92A [1]; [6]): 19 ± 1 mM
- Hill coefficient of Na^+ dependence of aspartate transport (GltPh S93A [2]; 500 nM ^3H-L-aspartate): 1.9±0.2
- K 0.5 for Na^+ dependence of aspartate transport (GltPh S93A [2]; 500 nM ^3H-L-aspartate, Na^+ 0.1 to 300 mM): 44 ± 2 mM
- Hill coefficient of Na^+ dependence of L-glutamate transport (EAAT1; 300 µM L-glutamate): 2.8±0.4
- K 0.5 for Na^+ dependence of L-glutamate transport (EAAT1; 300 µM L-glutamate, Na^+ 1 to 150 mM): 28 ± 4 mM
- Na^+ dependence of L-glutamate transport: saturation at highest Na^+ concentration (EAAT1 T130A; 1 mM L-glutamate, 150 mM Na^+): not saturating
- Na^+ dependence of L-glutamate transport: saturation at highest Na^+ concentration (EAAT1 T131A; 1 mM L-glutamate, 150 mM Na^+): not saturating
- reduction of the binding free energy of Na3 by the mutation (GltPh T92A [3]): 7.5 kcal/mol
- reduction of the binding free energy of Na3 by the mutation (GltPh S93A [4]): 5.9 kcal/mol
- Hill coefficient (Na^+ ions co-transported with substrate) (GltPh): > 2

SMILES: N[C@@H](CC(=O)O)C(=O)O [aspartate]
- maximal velocity of ^3H-L-aspartate transport (wild type GltPh; [7]): 7.5±0.5 nmol/mg protein/min
- K 0.5 for aspartate transport (wild type GltPh; [8]): 100 ± 10 nM
- maximal velocity of ^3H-L-aspartate transport (GltPh T92A [1]; [7]): 42±1 nmol/mg protein/min
- K 0.5 for aspartate transport (GltPh T92A [1]; [8]): 61 ± 10 nM
- maximal velocity of ^3H-L-aspartate transport (GltPh S93A [2]; [7]): 58±3 nmol/mg protein/min
- K 0.5 for aspartate transport (GltPh S93A [2]; [8]): 370 ± 60 nM
- ^3H-L-aspartate uptake versus background (GltPh N310A): did not exhibit ^3H-L-aspartate uptake over background levels
- ^3H-L-aspartate uptake versus background (GltPh D312A): did not exhibit ^3H-L-aspartate uptake over background levels
